Reference: patent US20030021796A1, “Method of enhancing T cell immunity by selection of antigen specific T cells” (priority 2001, published 2003)
“Also recorded” adds a separate entry of the source.

What was measured:
transgenic thymocytes [1] = test: Negative selection of transgenic thymocytes after i.p. peptide injection into TCR^TgTCRα^− mice (wild type A^b); format: in vivo, mouse
Description: (§1) Flow cytometry analysis. Monoclonal antibodies specific for CD4(RM4-5), CD8(53-6.7), VβB8(F23.1), CD69(H1.2F3), CD44(IM7) and CD62L(MEL-14) were purchased from PharMingen (San Diego, Calif.) and used according to manufacturer's recommendations. Cells were analyzed using a FACSCalibur instrument (Becton Dickinson, San Jose, Calif.) and CellQuest software. For intracellular stain cells were first stained for CD4 and CD8, fixed in 2% paraformaldehyde, permeabilized in 0.1% Tween-20 and stained with anti-bcl-2 antibody (Pharmingen) according to manufacturer instruction.
(§2) Peptide injections and surgical procedures. TCR^TgTCRα^− and TCR^TgTCRαH2-M^−Ii^− were injected i.p. with agonist and control peptides dissolved in PBS. After indicated time mice were sacrificed, thymus and lymph nodes were collected and single cell suspensions were prepared. Pups were injected with 2 μg of peptide subcutaneously 12-24 hours after birth and thymi were transplanted into recipient mice 24 hours after injection. 5-8 week old TCR^TgTCRα^− H2-M^−Ii^− mice were used for thymectomy or as thymic transplant recipients. Surgical procedures were performed as described (Coligan et al., 1997). Mice were handled according with the institutional guidance.
Characterization of peptide agonists for the PCC specific transgenic αβTCR. To examine the role of peptides during positive selection in vivo, the inventors generated transgenic mice expressing class II restricted TCR specific for analogs of a pigeon cytochrome C peptide PCC(43-58) presented by the A molecule (Kraj et al., 2001). This receptor recognizes analogs of PCC(43-58) in which aspartic acid in position 50 is replaced by amino acids with neutral/hydrophobic (PCC50V, PCC50V54A, PCC46A49A50V54A, PCC50L, PCC50F) side chains (FIG. 6 and FIG. 9). The TCR transgenic mice were backcrossed to C57BL6 TCRα^− knockout mice so that almost all T cells expressing transgenic TCR become CD4^+ T cells (FIG. 4A and FIG. 10A). Initially, the inventors examined the capacity of agonist peptides to induce negative selection of transgenic T cells.

B16 melanoma cells = test: Protection against B16 melanoma transfected with A^bPCC50V54A-YFP in TCR^Tgα^−H-2M^−Ii^− mice; format: in vivo, mouse
Description: Protection of a mouse melanoma model. Peptide selected CD4^+ T cells are shown to be functional and protect mice from melanoma tumor cells. To determine if peptide selected T lymphocytes are able to mount an effective immune response in vivo the ability of peptide-selected CD4^+ cells to protect mice from melanoma was assessed. Melanoma B16-F1 was transfected with constructs encoding the A^bβPCC50V54A chain tagged with yellow fluorescent protein (YFP) and A^bα chain. These transfectants weakly stimulated TCR^Tgα^− CD4^+ cells from wild type mice. TCR^Tgα^−H2-M^−Ii^− mice received subcutaneous injection of B16 melanoma transfectants. At the same time, half of these mice also received selecting agonist peptide. After 12 days, animals were sacrificed, and the phenotype of tumor cells and peripheral CD4^+ T cells in draining lymph nodes was examined. As shown in FIGS. 16A-E, only mice that received selecting peptide accumulated peripheral CD4^+ T cells. These cells responded to tumor as assessed by upregulation of CD69 and downregulation of CD62L. Most importantly, tumors in mice that received a selecting peptide were much smaller (4-6 times) and were composed of melanoma cells without surface expression of antigenic complex (only about ¼ of cells were YFP^+ compared to more then ¾ in mice not treated with the selecting peptide). […]

transgenic thymocytes [2] = test: Fetal thymic organ cultures (FTOC) from TgTCRα^−H-2M^−Ii^− mice with peptide; format: cell-based, mouse; details: continuous delivery of peptide at low concentration
Excerpt: The TgTCRα^−H-2M^−Ii^− system enables the visualization of thymocyte positive selection in real time and in the native intrathymic environment. An in vitro system was setup where the transgenic thymocytes undergo efficient positive selection and commit to the CD4^+ lineage. […] These observations agreed with the previous reports in which CD8^+, but not CD4+, T cells could be positively selected by the specific peptide in FTOCs (Kenty et al., 1998; Liblau et al, 1996). Therefore, neonatal thymic organ cultures (NTOC) were established from TgTCRα^−-H-2M^−Ii^− neonates. The neonates received a single i.p. injection of the PCC50V54A peptide just after birth and were sacrificed 24 hours later when their thymuses were harvested.

transgenic CD4^+ T cells = test: Selection of transgenic CD4^+ T cells in TCR^TgTCRα^−→H-2M^−Ii^− radiation chimeras; details: mouse, in vivo
Excerpt: Also disclosed by the inventors is the development of transgenic CD4^+ T cells in chimeras made by reconstituting H-2M^−Ii^− mice with the bone marrow from TCR^TgTCRα^− mice (TCR^TgTCRα^−→H-2M^−Ii^− chimeras). The development of thymocytes in such chimeras is arrested at the CD4^+CD8^+ stage despite the presence of selecting wild type A^b/self-peptide complexes on bone marrow-derived dendritic cells. […] This in vivo model relates that, in contrast to the reaggregation cultures (Yastumo et al., 2000), radioresistant thymic epithelial cells are required to provide an agonist signal that induces thymocyte differentiation towards CD4^+ lineage in vivo.

[3] = test system: transgenic CD4^+ thymocytes; test: Positive selection of CD4^+ thymocytes after peptide injection into TCR^TgTCRα^−H2-M^−Ii^− mice (flow cytometry of thymus); format: in vivo, mouse
Excerpt: Mice. The TCR genes were cloned from T cell hybridoma specific for analogs of the PCC(43-58) peptide and expressed in VA-hCD2 cassette (Ignatowicz et al., 1997; Kraj et al., 2001; Zhumabekov et al., 1995). All TCR transgenic mice were made by co-microinjection of the respective […] and TCRβ constructs into fertilized eggs of F1 (C57BL/6×CBA/Ca) mice. TCR Tg mice were crossed to C57B16/TCRα^− (Jackson Laboratory, ME) mice and to mice deficient in H2-M (kindly provided by E. Bikoff and R. Germain) and Ii (kindly provided by L. van Kaer) to obtain TCR^TgTCRα^− H2-M^−Ii^−.
as §1, §2

[4] = one i.p. injection of 50 μg, 24 hours

## AEGFSYTVANKAKGIT [PCC50V54A, analog of pigeon cytochrome C peptide PCC(43-58)]
Transgenic thymocytes [1]; 20 μg i.p., 24 hours, thymus cellularity, annexin V, TUNNEL
  negative selection of transgenic thymocytes: does not induce negative selection; also recorded: did not induce negative selection
Transgenic thymocytes [1]; 20 μg, TgTCRα^−H-2M^−Ii^− or TgTCRα^−A^bwt mice
  thymus cellularity: the same as in control mice
Transgenic thymocytes [1]; 200 μg/mouse i.p., 24 hours
  negative selection / deletion of transgenic thymocytes: induced profound negative selection; also recorded: induced profound deletion
Transgenic thymocytes [1]; after peptide injection, 20 μg
  apoptotic cells by TUNNEL assay and annexin V staining: failed to demonstrate apoptotic cells
B16 melanoma cells; 20 μg i.p.
  tumor mass / size relative to mice without selecting peptide: 4-6 times smaller
B16 melanoma cells; more then ¾ YFP^+ in mice not treated
  expression of A^bPCC50V54A-YFP on remaining tumor cells: do not express A^bPCC50V54A-YFP
Transgenic thymocytes [2]
  lineage commitment of thymocytes in FTOC: the majority of thymocytes committed to the CD8 lineage
Transgenic CD4^+ T cells
  appearance / positive selection of mature CD4^+ T cells in chimeras: appeared only after injection
[3]; 20 μg, compared with controls
  cellularity of the thymus and number of apoptotic cells (TUNNEL assay and annexin V staining): the same
[3]; after injection of selecting peptide (20 μg, 48 hours)
  expression of TCR, CD69, bcl-2 on thymocytes: became bcl-2+; also recorded: upregulated CD69 and bcl-2 expression; also recorded: upregulated TCR and CD69 expression; also recorded: Bcl-2 was upregulated
[3]; i.p., non-deleting dose (20 μg)
  positive selection of transgenic thymocytes: restored selection of CD4^+ single positive thymocytes
[3]; mouse, in vivo
  CD25 phenotype of newly selected CD4^+ thymocytes: CD25^−
[3]; [4]
  differentiation of thymocytes into single positive CD4^+ cells: differentiate into single positive CD4^+ cells
  total number of thymocytes: 161.5×10^6±54.4
[3]; one i.p. injection of 50 μg, 48 hours
  total number of thymocytes: 142.5×10^6±44.9
[3]; single injection
  duration of positive selection of CD4^+ thymocytes after a single injection: 14 days
